These results are taken from BindingDB's records for doi:10.3109/14756366.2013.823957 (National Tsing Hua University, 2014).

The target of this experiment is Cathepsin S (Homo sapiens, UniProt P25774). Kind of experiment: Cathepsin Activity Assay. The note with it: pH 6.5; 25 °C. How it is done: A microplate-based screening procedure was used to study the effect of inhibition of re-Cat S, re-Cat L and re-Cat K on several compounds. The assays were performed in quadruplicates at 25 °C in a buffer containing 50 mM MES, pH 6.5, 2.5 mM EDTA and 1 mM DTT for re-Cat S, or 100 mM NaOAc, pH 5.5, 1 mM DTT and 2 mM EDTA for re-Cat L, or 50 mM MES, pH 5.5, 5 mM DTT and 2.5 mM EDTA for re-Cat K. Each of tested compounds at 100 nM was incubated with 50 nM re-Cat S, 31.25 pM re-Cat L or 10 nM re-Cat K at 37 °C for 10 min before initiating the reaction with the addition of 5 μM relevant substrate (Z-Phe-Arg-AMC for Cat L and Cat K, and Z-Val-Val-Arg-AMC for Cat S), respectively [Ward et al., J. Med. Chem., 45:5471-82]. Reactions in microplates were kept at 37 °C for another 30 min and then to collect the fluorescent signals from each well in microplates. E64 and 1% DMSO were applied as positive and solvent control, respectively. Fluorimetric assays were performed at 37 °C on a Perkin Elmer LS55 fluorescence spectrophotometer (Waltham, MA) with excitation at 370 nm and emission at 460 nm wavelengths. The inhibitory ability of a tested compound was determined by decreased fluorescence compared to DMSO control.
Cathepsin S, sequence (P25774 whole entry): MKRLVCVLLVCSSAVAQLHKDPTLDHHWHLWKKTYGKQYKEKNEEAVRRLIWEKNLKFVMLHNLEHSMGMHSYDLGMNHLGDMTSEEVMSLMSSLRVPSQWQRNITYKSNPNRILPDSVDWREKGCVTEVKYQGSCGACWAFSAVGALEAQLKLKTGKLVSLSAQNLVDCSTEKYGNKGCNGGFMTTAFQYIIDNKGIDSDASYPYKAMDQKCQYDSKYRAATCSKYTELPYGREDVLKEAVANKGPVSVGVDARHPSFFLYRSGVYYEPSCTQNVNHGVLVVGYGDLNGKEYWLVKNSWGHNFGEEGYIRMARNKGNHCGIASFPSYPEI
A word on the IC50: it is the concentration that gives 50% inhibition. A low value points to higher potency. On to `CCOC(=O)CNC(=O)C(=O)C(COCc1ccccc1)NC(=O)C(CC1CCCCC1)NC(=O)N1CCOCC1` (stereo not drawn) [Cathepsin S inhibitor alpha-ketoamide, 6a], for which 4.4 nM corresponded to half-maximal inhibition (IC50).

On to `CCOC(=O)CNC(=O)C(=O)C(COCc1ccccc1)NC(=O)C(CC1CCCCC1)NC(=O)c1cccc([N+](=O)[O-])c1` (stereo not drawn) [Cathepsin S inhibitor alpha-ketoamide, 6b], for which the half-maximal inhibitory concentration (IC50) amounted to 2 nM. For the compound `CCOC(=O)CNC(=O)C(=O)C(COCc1ccccc1)NC(=O)C(CC1CCCCC1)NC(=O)c1cccc2c1C(=O)c1ccccc1-2` (stereo not drawn) [Cathepsin S inhibitor alpha-ketoamide, 6r], the midpoint of inhibition, the IC50, lay at 8.8 nM.

For `CCOC(=O)CNC(=O)C(=O)C(COCc1ccccc1)NC(=O)C(CC1CCCCC1)NC(=O)c1cc(OC)ccc1[N+](=O)[O-]` (stereo not drawn) [Cathepsin S inhibitor alpha-ketoamide, 6e], the half-maximal inhibitory concentration (IC50) was determined as 3.1 nM. The compound `CCOC(=O)CNC(=O)C(=O)C(COCc1ccccc1)NC(=O)C(CC1CCCCC1)NC(=O)c1ccc(C(=O)OC)c(NC(=O)OC(C)(C)C)c1` (stereo not drawn) [Cathepsin S inhibitor alpha-ketoamide, 6n] gave an IC50 of 49.2 nM. The compound `CC(C)(C)CC(C)(C)NC(=O)C(=O)C(COCc1ccccc1)NC(=O)C(CC1CCCCC1)NC(=O)N1CCOCC1` (stereo not drawn) [Cathepsin S inhibitor alpha-ketoamide, 6w] came in with a 50% inhibitory concentration (IC50) of 3.1 nM. `CCOC(=O)CNC(=O)C(=O)C(COCc1ccccc1)NC(=O)C(CC1CCCCC1)NC(=O)c1ccc(C(=O)OC)c(N)c1` (stereo not drawn) [Cathepsin S inhibitor alpha-ketoamide, 6p] displayed an IC50 of 5.8 nM.
